Laboratory results taken from PubChem BioAssay (NCI).
Several values for one entry are separate records, joined by “and”; a condition that tells them apart may be missing. Equal entries are not always repeated.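 Compound exposure: 48 hours, 5 concentrations, 96-well plates. Here, GI50 denotes the concentration required for 50% inhibition of growth. TGI denotes the concentration required for complete inhibition of growth.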

How the values were obtained:
Test in all cases: inhibition of tumour cell growth, NCI panel, 48 h
HOP-92 NSCLC = system: HOP-92 NSCLC
HOP-62 NSCLC = system: HOP-62 NSCLC
SR leukemia = system: SR leukemia
HCC-2998 colon = system: HCC-2998 colon
XF 498 CNS = system: XF 498 CNS
KM20L2 colon = system: KM20L2 colon
MOLT-4 leukemia = system: MOLT-4 leukemia
SF-295 CNS = system: SF-295 CNS
SW-620 colon = system: SW-620 colon
SNB-78 CNS = system: SNB-78 CNS
SN12C renal = system: SN12C renal
EKVX NSCLC = system: EKVX NSCLC
NCI-H460 lung = system: NCI-H460 lung
LXFL 529 NSCLC = system: LXFL 529 NSCLC
SNB-75 CNS = system: SNB-75 CNS
LOX IMVI melanoma = system: LOX IMVI melanoma
COLO 205 colon = system: COLO 205 colon
SK-OV-3 ovarian = system: SK-OV-3 ovarian
DMS 273 small cell lung = system: DMS 273 small cell lung
786-0 renal = system: 786-0 renal
RPMI-8226 leukemia = system: RPMI-8226 leukemia
UO-31 renal = system: UO-31 renal
CCRF-CEM leukemia = system: CCRF-CEM leukemia
HL-60(TB) leukemia = system: HL-60(TB) leukemia
UACC-257 melanoma = system: UACC-257 melanoma
IGROV1 ovarian = system: IGROV1 ovarian
HCT-15 colon = system: HCT-15 colon
NCI-H23 lung = system: NCI-H23 lung
OVCAR-5 ovarian = system: OVCAR-5 ovarian
HT29 colon = system: HT29 colon
M14 melanoma = system: M14 melanoma
ACHN renal = system: ACHN renal
RXF 393 renal = system: RXF 393 renal
CAKI-1 renal = system: CAKI-1 renal
SK-MEL-28 melanoma = system: SK-MEL-28 melanoma
TK-10 renal = system: TK-10 renal
DLD-1 colon = system: DLD-1 colon
SNB-19 CNS = system: SNB-19 CNS
M19-MEL melanoma = system: M19-MEL melanoma
OVCAR-8 ovarian = system: OVCAR-8 ovarian
OVCAR-3 ovarian = system: OVCAR-3 ovarian
U251 CNS = system: U251 CNS
SK-MEL-5 melanoma = system: SK-MEL-5 melanoma
HCT-116 colon = system: HCT-116 colon
UACC-62 melanoma = system: UACC-62 melanoma
NCI-H226 lung = system: NCI-H226 lung
OVCAR-4 ovarian = system: OVCAR-4 ovarian
K-562 leukemia = system: K-562 leukemia
KM12 colon = system: KM12 colon
A549 NSCLC = system: A549 NSCLC
SF-539 CNS = system: SF-539 CNS
SK-MEL-2 melanoma = system: SK-MEL-2 melanoma
HOP-18 NSCLC = system: HOP-18 NSCLC
NCI-H522 lung = system: NCI-H522 lung
MALME-3M melanoma = system: MALME-3M melanoma
A498 renal = system: A498 renal
SF-268 CNS = system: SF-268 CNS

C=[CH][Sn]([CH]=C)([S]c1cccc2cccnc12)[S]c1cccc2cccnc12
GI50 (HOP-92 NSCLC): 1590 nM | TGI (HOP-92 NSCLC): 3070 nM | GI50 (HOP-62 NSCLC): 1450 nM | TGI (HOP-62 NSCLC): 3490 nM | GI50 (SR leukemia): 216 nM | TGI (SR leukemia): 687 nM | GI50 (HCC-2998 colon): 212 nM | TGI (HCC-2998 colon): 437 nM | GI50 (XF 498 CNS): 283 nM | TGI (XF 498 CNS): 679 nM | GI50 (KM20L2 colon): 211 nM | TGI (KM20L2 colon): 449 nM | GI50 (MOLT-4 leukemia): 287 nM | TGI (MOLT-4 leukemia): 967 nM | GI50 (SF-295 CNS): 438 nM | TGI (SF-295 CNS): 1830 nM | GI50 (SW-620 colon): 156 nM | TGI (SW-620 colon): 299 nM | GI50 (SNB-78 CNS): 145 nM | TGI (SNB-78 CNS): 396 nM | GI50 (SN12C renal): 442 nM | TGI (SN12C renal): 1600 nM | GI50 (EKVX NSCLC): 678 nM | TGI (EKVX NSCLC): 1970 nM | GI50 (NCI-H460 lung): 201 nM | TGI (NCI-H460 lung): 417 nM | GI50 (LXFL 529 NSCLC): 236 nM | TGI (LXFL 529 NSCLC): 649 nM | GI50 (SNB-75 CNS): 562 nM | TGI (SNB-75 CNS): 2370 nM | GI50 (LOX IMVI melanoma): 172 nM | TGI (LOX IMVI melanoma): 310 nM | GI50 (COLO 205 colon): 70.2 nM | TGI (COLO 205 colon): 254 nM | GI50 (SK-OV-3 ovarian): 436 nM | TGI (SK-OV-3 ovarian): 1550 nM | GI50 (DMS 273 small cell lung): 216 nM | TGI (DMS 273 small cell lung): 486 nM | GI50 (786-0 renal): 216 nM | TGI (786-0 renal): 452 nM | GI50 (RPMI-8226 leukemia): 248 nM | TGI (RPMI-8226 leukemia): 692 nM | GI50 (UO-31 renal): 181 nM | TGI (UO-31 renal): 358 nM | GI50 (CCRF-CEM leukemia): 76.7 nM | TGI (CCRF-CEM leukemia): 641 nM | GI50 (HL-60(TB) leukemia): 268 nM | TGI (HL-60(TB) leukemia): 611 nM | GI50 (UACC-257 melanoma): 212 nM | TGI (UACC-257 melanoma): 494 nM | GI50 (IGROV1 ovarian): 273 nM | TGI (IGROV1 ovarian): 726 nM | GI50 (HCT-15 colon): 237 nM | TGI (HCT-15 colon): 648 nM | GI50 (NCI-H23 lung): 169 nM | TGI (NCI-H23 lung): 388 nM | GI50 (OVCAR-5 ovarian): 237 nM | TGI (OVCAR-5 ovarian): 745 nM | GI50 (HT29 colon): 226 nM | TGI (HT29 colon): 476 nM | GI50 (M14 melanoma): 210 nM | TGI (M14 melanoma): 404 nM | GI50 (ACHN renal): 206 nM | TGI (ACHN renal): 507 nM | GI50 (RXF 393 renal): 255 nM | TGI (RXF 393 renal): 678 nM | GI50 (CAKI-1 renal): 366 nM | TGI (CAKI-1 renal): 1580 nM | GI50 (SK-MEL-28 melanoma): 138 nM | TGI (SK-MEL-28 melanoma): 321 nM | GI50 (TK-10 renal): 458 nM | TGI (TK-10 renal): 1460 nM | GI50 (DLD-1 colon): 244 nM | TGI (DLD-1 colon): 722 nM | GI50 (SNB-19 CNS): 794 nM | TGI (SNB-19 CNS): 2040 nM | GI50 (M19-MEL melanoma): 194 nM | TGI (M19-MEL melanoma): 372 nM | GI50 (OVCAR-8 ovarian): 313 nM | TGI (OVCAR-8 ovarian): 1000 nM | GI50 (OVCAR-3 ovarian): 268 nM | TGI (OVCAR-3 ovarian): 810 nM | GI50 (U251 CNS): 191 nM | TGI (U251 CNS): 380 nM | GI50 (SK-MEL-5 melanoma): 203 nM | TGI (SK-MEL-5 melanoma): 389 nM | GI50 (HCT-116 colon): 165 nM | TGI (HCT-116 colon): 318 nM | GI50 (UACC-62 melanoma): 147 nM | TGI (UACC-62 melanoma): 287 nM | GI50 (NCI-H226 lung): 280 nM | TGI (NCI-H226 lung): 1150 nM | GI50 (OVCAR-4 ovarian): 204 nM | TGI (OVCAR-4 ovarian): 553 nM | GI50 (K-562 leukemia): 234 nM | TGI (K-562 leukemia): 621 nM | GI50 (KM12 colon): 176 nM | TGI (KM12 colon): 322 nM | GI50 (A549 NSCLC): 343 nM | TGI (A549 NSCLC): 1120 nM | GI50 (SF-539 CNS): 321 nM | TGI (SF-539 CNS): 1010 nM | GI50 (SK-MEL-2 melanoma): 222 nM | TGI (SK-MEL-2 melanoma): 490 nM | GI50 (HOP-18 NSCLC): 1660 nM | TGI (HOP-18 NSCLC): 3020 nM

COc1ccc(/C(Cl)=C(\CN(C)C)c2ccc(OC)c(OC)c2)cc1OC
TGI (HOP-62 NSCLC): > 100000 nM | TGI (SR leukemia): > 100000 nM | TGI (HCC-2998 colon): > 100000 nM | TGI (XF 498 CNS): > 100000 nM | TGI (KM20L2 colon): > 100000 nM | TGI (MOLT-4 leukemia): > 100000 nM | TGI (SF-295 CNS): > 100000 nM | TGI (SW-620 colon): > 100000 nM | TGI (SNB-78 CNS): 97900 nM and > 100000 nM | TGI (NCI-H522 lung): > 100000 nM | TGI (SN12C renal): > 100000 nM | TGI (EKVX NSCLC): > 100000 nM | TGI (NCI-H460 lung): > 100000 nM | TGI (LXFL 529 NSCLC): > 100000 nM | TGI (SNB-75 CNS): > 100000 nM | TGI (LOX IMVI melanoma): > 100000 nM | TGI (COLO 205 colon): > 100000 nM | TGI (SK-OV-3 ovarian): > 100000 nM | TGI (DMS 273 small cell lung): > 100000 nM | TGI (786-0 renal): > 100000 nM | TGI (RPMI-8226 leukemia): > 100000 nM | TGI (MALME-3M melanoma): > 100000 nM | TGI (UO-31 renal): > 100000 nM | TGI (CCRF-CEM leukemia): > 100000 nM | TGI (HL-60(TB) leukemia): > 100000 nM | TGI (UACC-257 melanoma): > 100000 nM | TGI (IGROV1 ovarian): > 100000 nM | TGI (HCT-15 colon): > 100000 nM | TGI (NCI-H23 lung): > 100000 nM | TGI (OVCAR-5 ovarian): > 100000 nM | TGI (A498 renal): > 100000 nM | TGI (HT29 colon): > 100000 nM | TGI (M14 melanoma): > 100000 nM | TGI (ACHN renal): > 100000 nM | TGI (RXF 393 renal): > 28600 nM | TGI (SF-268 CNS): > 100000 nM | TGI (CAKI-1 renal): > 100000 nM | TGI (SK-MEL-28 melanoma): > 100000 nM | GI50 (TK-10 renal): > 27900 nM | TGI (TK-10 renal): > 100000 nM | TGI (DLD-1 colon): > 100000 nM | TGI (SNB-19 CNS): > 100000 nM | TGI (M19-MEL melanoma): > 100000 nM | TGI (OVCAR-8 ovarian): > 100000 nM | TGI (OVCAR-3 ovarian): > 100000 nM | TGI (U251 CNS): > 100000 nM | TGI (SK-MEL-5 melanoma): > 100000 nM | TGI (HCT-116 colon): > 46400 nM | TGI (UACC-62 melanoma): > 100000 nM | TGI (NCI-H226 lung): > 100000 nM | TGI (K-562 leukemia): > 100000 nM | TGI (KM12 colon): > 100000 nM | TGI (A549 NSCLC): > 100000 nM | TGI (SF-539 CNS): > 100000 nM | TGI (SK-MEL-2 melanoma): > 100000 nM | TGI (HOP-18 NSCLC): > 100000 nM
